Reference: patent publication US20130130928A1, “METHODS FOR PREDICTING OR MONITORING WHETHER A PATIENT AFFECTED BY A CANCER IS RESPONSIVE TO A TREATMENT WITH A MOLECULE OF THE TAXOID FAMILY” (INSTITUT GUSTAVE ROUSSY, priority 2010, published 2013)

Assays:
[1] = tested on: IGR-CaP1 docetaxel-resistant cell lines (IGR-CaP1-R); assay: Genome-wide microarray gene expression analysis of docetaxel-resistant vs parental IGR-CaP1 cells, first analysis (Tables 1-4, FC exp1); format: cell-based, human
Procedure: (§1) The human androgen-independent IGR-CaP1 cell line recently obtained for a localized prostate cancer was maintained in RPMI medium complemented with 10% FBS and antibiotics.
Quality of RNA preparation, based on the RNA Integrity Number (RIN), was assessed using the Agilent RNA 6000 Nano Kit as developed on the Agilent 2100 Bioanalyzer device (Agilent Technologies, Palo Alto, Calif.). […] RNA samples were frozen in nuclease-free water (Qiagen).
Parental and resistant-cell line total RNAs were directly compared by using Agilent oligonucleotide dual-color technology, running dye-swap and duplicate experiments. Total RNA from the parental IGR-CaP1 cell line without treatment was used as the RNA reference. […] Probe synthesis and labeling were performed by Agilent's Low Fluorescent Low input Linear Amplification Kit. Hybridization was performed on the Agilent 4×44K Human 1A (G4112F) long (60-bp) oligonucleotide microarrays (Agilent Technologies) by using reagents and protocols provided by the manufacturer. Feature extraction software provided by Agilent (Version A.9.5.3.1) was used to quantify the intensity of fluorescent images and to normalize results using the linear and lowess subtraction method.
The methodology described below is based on a dose-dependent gene expression changes:
Under the hypothesis of a clone enrichment, and/or a biological effect due to drug increasing, monotonically increasing or decreasing expression profiles were identified by using a 5-parameters logistic regression model:
where yg is the log.ratio of treatment vs. reference for the gene g, x is the drug-dose in Log10[nM], and B, T, xc, p are, respectively, the estimated minimal value, the estimated maximal value, the slope at the inflexion point, and the asymmetric parameter. For each probe, parameters were first initialized with the observed values, and then optimized by an iterative method of gradient (the Newton-Raphson method). The aim of this iterative algorithm is to minimize the weighted quadratic sum of residuals:
The performance of the fitting was measured, for each probe, by a robust linear regression (RLR) of the fitted values against the observed values. Probes potentially associated with the drug increasing were selected on the 2 following criterion:
RLRp-value ≦1e-5, and |fold change|≧2 between the first and the last dose (resp: 5 and 200 nM), considering the fold change estimated by the 5-parameters logistic regression model. Calculations and graphic visualizations were performed in R (free software version 2.6.2), by using the package “MASS” (version 7.2-40), and supplemental scripts, in R language, written in the lab (F. Commo).
Untreated IGR-CaP1 parental cell lines were used as baseline. Such genes were those for which expression changes (at least one probe in case of multiple probe sets per gene) appeared as drug-dependent, in the sense of criterion described above.

[2] = tested on: prostate cancer; conditions: cited from earlier work
[3] = tested on: IGR-CaP1 cells; assay: Generation of acquired resistance to docetaxel in vitro (dose-escalation selection of clones); format: cell-based, human; conditions: selection with docetaxel, before proliferation was regained
From the text: The prostate cancer cell line IGR-CaP1 is described in CNCM deposit number I-4126 on Feb. 10, 2009.
as §1
Prostate cancer IGR-CaP1 cells were used to generate successive docetaxel-resistant cell lines. […] Cell cycle analysis was done to show acquired resistance to drug.

[4] = tested on: docetaxel resistant cells (PC3 and DU145); conditions: cited from earlier work
[5] = IGR-CaP1-R 100 nM docetaxel clone vs parental IGR-CaP1

## CC(=O)O[C@@]12CO[C@@H]1C[C@H](O)[C@@]1(C)C(=O)[C@H](O)C3=C(C)[C@@H](OC(=O)[C@H](O)[C@@H](NC(=O)OC(C)(C)C)c4ccccc4)C[C@@](O)([C@@H](OC(=O)c4ccccc4)[C@H]21)C3(C)C [docetaxel]
[1]; IGR-CaP1-R 5 nM docetaxel clone vs parental IGR-CaP1
  ZFP62 gene expression 5 nM: 0.190
[1]; IGR-CaP1-R 12 nM docetaxel clone vs parental IGR-CaP1
  ZFP62 gene expression 12 nM: 0.246
[1]; IGR-CaP1-R 25 nM docetaxel clone vs parental IGR-CaP1
  ZFP62 gene expression 25 nM: 0.278
[1]; IGR-CaP1-R 50 nM docetaxel clone vs parental IGR-CaP1
  ZFP62 gene expression 50 nM: 0.402
[1]; [5]
  LRRC44 gene expression 100 nM: 0.139
  ZFP62 gene expression 100 nM: 0.482
[1]; IGR-CaP1-R 200 nM docetaxel clone vs parental IGR-CaP1
  ZFP62 gene expression 200 nM: 0.503
[2]; from the beginning or in a secondary way
  patients developing resistance to the chemotherapy: almost half
[2]; patients
  toxicity: great toxicity
[2]; prostate cancer patients, TAX 327 and SWOG 99-16
  survival: increase in survival
[3]
  cell death on addition of docetaxel: a large majority of cells initially underwent cell death

## Oc1ccc(C=Cc2cc(O)cc(O)c2)cc1 [resveratrol]
[4]
  apoptosis: increase of apoptosis
  clusterin expression: decreased expression of clusterin
